Measured values: US8716292B2, “Riminophenazines with 2-(heteroaryl)amino substituents and their anti-microbial activity” (priority 2010, dated 2014)
Converted amounts (≈) assume the structure as drawn.

system: Mycobacterium tuberculosis H37Rv strains; assay: In vitro assay for antimicrobial susceptibility (microplate Alamar blue MIC); type: cell-based; conditions: Mycobacterium tuberculosis, H37RV, in vitro, Mycobacterium tuberculosis H37Rv strains; read-out: MIC (μg/mL) against H37Rv

Row | Structure (SMILES) | MIC [µg/mL]
1 | CO[C@H]1CC[C@H](/N=c2\cc3n(-c4ccc(F)cc4)c4ccccc4nc-3cc2Nc2ccc(NC(C)=O)nc2)CC1 [TBI-915, 5-(4-Fluorophenyl)-3-(1′,4′-trans-4-methoxycyclohexyl)imino-2-(6-acetamino-3-pyridyl)amino-3,5-dihydrophenazine] | 0.211 (≈ 0.383 µM)
2 | O[C@H]1CC[C@H](/N=c2\cc3n(-c4cccc(Cl)c4)c4ccccc4nc-3cc2Nc2cccnc2)CC1 [TBI-811, 5-(3-Chlorophenyl)-3-(1′,4′-trans-4-hydroxycyclohexyl)imino-2-(3-pyridyl)amino-3,5-dihydrophenazine] | 0.5 (≈ 1.01 µM)
3 | Cc1ccc(Nc2cc3nc4ccccc4n(-c4ccc(C(F)(F)F)cc4)c-3c/c2=N\C2CCOCC2)cn1 [TBI-696, 5-(4-Trifluoromethylphenyl)-3-(4-tetrahydropyranyl)imino-2-(6-methyl-3-pyridyl)amino-3,5-dihydrophenazine] | 0.032 (≈ 0.0604 µM)
4 | COC1CCC(/N=c2\cc3n(-c4ccc(OC(F)(F)F)cc4)c4ccc(F)cc4nc-3cc2Nc2ccc(C)nc2)CC1 (centres unmarked) [TBI-866, 8-Fluoro-5-(4-trifluoromethoxyphenyl)-3-(4-methoxycyclohexyl)imino-2-(6-methyl-3-pyridyl)amino-3,5-dihydrophenazine] | 0.027 (≈ 0.0456 µM)
5 | Cc1ncccc1Nc1cc2nc3ccccc3n(-c3ccc(C(F)(F)F)cc3)c-2c/c1=N\C1CCC(O)CC1 (centres unmarked) [TBI-709, 5-(4-Trifluoromethylphenyl)-3-(4-hydroxycyclohexyl)imino-2-(2-methyl-3-pyridyl)amino-3,5-dihydrophenazine] | 0.108 (≈ 0.199 µM)
6 | Clc1cccc(-n2c3c/c(=N\C4CCC4)c(Nc4cccnc4)cc-3nc3ccccc32)c1 [TBI-814, 5-(3-Chlorophenyl)-3-cyclobutylimino-2-(3-pyridyl)amino-3,5-dihydrophenazine] | 0.04 (≈ 0.0885 µM)
7 | COc1ncccc1Nc1cc2nc3cc(F)ccc3n(-c3ccc(Cl)c(Cl)c3)c-2c/c1=N\C1CCC(OC)CC1 (centres unmarked) [TBI-879, 8-Fluoro-5-(3,4-dichlorophenyl)-3-(4-methoxycyclohexyl)imino-2-(2-methoxy-3-pyridyl)amino-3,5-dihydrophenazine] | 0.109 (≈ 0.184 µM)
8 | COc1ncccc1Nc1cc2nc3ccccc3n(-c3ccc(C)cc3)c-2c/c1=N\C1CCN(C)CC1 [TBI-313, 5-(4-Methylphenyl)-3-(N-methyl-4-piperidyl)imino-2-(2-methoxy-3-pyridyl)amino-3,5-dihydrophenazine] | 0.016 (≈ 0.0317 µM)
9 | Cc1ncccc1Nc1cc2nc3ccccc3n(-c3ccccc3)c-2c/c1=N\C1CCOCC1 [TBI-075, 5-Phenyl-3-(4-tetrahydropyranyl)imino-2-(2-methyl-3-pyridyl)amino-3,5-dihydrophenazine] | 0.328 (≈ 0.711 µM)
10 | COC1CCC(/N=c2\cc3n(-c4ccc(OC(F)(F)F)cc4)c4cc(F)ccc4nc-3cc2Nc2ccc(C)nc2)CC1 (centres unmarked) [TBI-852, 7-Fluoro-5-(4-trifluoromethoxyphenyl)-3-(4-methoxycyclohexyl)imino-2-(6-methyl-3-pyridyl)amino-3,5-dihydrophenazine] | 0.024 (≈ 0.0406 µM)
11 | Cc1cncc(Nc2cc3nc4ccccc4n(-c4ccc(F)cc4)c-3c/c2=N\C2CCC2)c1 [TBI-1031] | 0.028 (≈ 0.0623 µM)
12 | COc1ccc(Nc2cc3nc4ccccc4n(-c4ccc(C(F)(F)F)cc4)c-3c/c2=N\C2CC2)cn1 [TBI-736, 5-(4-Trifluoromethylphenyl)-3-cyclopropylimino-2-(6-methoxy-3-pyridyl)amino-3,5-dihydrophenazine] | 0.224 (≈ 0.447 µM)
13 | Fc1ccc(-n2c3c/c(=N\C4CCC4)c(Nc4cccnc4)cc-3nc3ccccc32)cc1F [TBI-526, 5-(3,4-Difluorophenyl)-3-cyclobutylimino-2-(3-pyridyl)amino-3,5-dihydrophenazine] | 0.079 (≈ 0.174 µM)
14 | Brc1ccc(-n2c3c/c(=N\C4CCCCC4)c(Nc4cccnc4)cc-3nc3ccccc32)cc1 [TBI-089, 5-(4-Bromophenyl)-3-cyclohexylimino-2-(3-pyridyl)amino-3,5-dihydrophenazine] | 0.021 (≈ 0.04 µM)
